According to patent US9581606B2, “Method for determining depression, kit for analyzing serotonin transporter, and kit for analyzing ubiquitinated serotonin transporter in blood” (MEIJO UNIVERSITY, priority 2011, dated 2017):
Where a SMILES comes first, the peptide text is derived from it. The star is where a group is joined. Cbz = O=C(OCc1ccccc1)*

How the values were obtained:
[1] = test system: serotonin transporter protein; test: Expression amount of serotonin transporter protein in established lymphocytes (Western blotting); type: cell-based, human; conditions: for expression amount of the serotonin transporter: MG132 20 μM, 4 hours, control = healthy subjects without MG132
Description: (§1) The mouse brain sample, cells, and established lymphocytes were subjected to ultrasonic fragmentation at 4° C. using a sonicator in a lysis buffer [20 mM Tris-HCl, 150 mM NaCl, 50 mM NaF, 1 mM EDTA, 1 mM EGTA, 1% (w/v) TRITONX-100, 1 mM sodium orthovanadate, 0.1% (w/v) SDS, 1% (w/v) sodium deoxycholate, 0.5 mM dithiothreitol, 10 mM sodium pyrophosphate decahydrate, 1 mM phenylmethylsulfonyl fluoride, 10 μg/mL aprotinin, 10 μg/mL leupeptin, and 10 μg/mL pepstatin (pH 7.4)], and thus a homogenate was obtained through these operations. The homogenate was centrifuged for 20 minutes at 4° C. and 13000×g, and the supernatant thus obtained was used. A sample buffer [0.125 M Tris-HCl (pH 6.8), 2% (w/v) SDS, 5% (w/v) glycerol, 0.002% (w/v) bromophenol blue, and 5% (w/v) 2-mercaptoethanol] was added to each of the supernatant samples whose protein content had been adjusted, and then boiled at 95° C. for 5 minutes. Thereafter, the protein (20 μg) was subjected to electrophoresis using a 10% polyacrylamide gel, the protein was transferred to a polyvinylidene difluoride (PVDF) membrane (Millipore Corporation, Billerica, Mass., USA), and blocked using Detector Block Kit (Kirkegaard and Perry Laboratories, Gaithersburg, Md., USA). A primary antibody (anti-SERT) (Millipore, Billerica, Mass.) against the serotonin transporter protein was added to the PVDF membrane, allowed to stand overnight in a refrigerator (4° C.), and then a secondary antibody (HRP-conjugated anti-rabbit IgG) (Kirkegaard and Perry Laboratories) was added, and allowed to stand at room temperature for 3 hours. The luminescence due to the immune complex was detected using ECL (GE Healthcare Biosciences, Piscataway, N.J., USA), which is a Western blotting detection reagent, and the expression amount was calculated by the image analysis of the luminescence intensity.
Subsequently, in order to determine the expression amount of the β-actin protein as the endogenous reference material, stripping was carried out, a primary antibody (anti-β-actin) (Santa Cruz Biotechnology, Santa Cruz, Calif.) was added, and incubated. In the result thus obtained, the band of the serotonin transporter protein was corrected by the band of the β actin protein, and the expression amount to the control group was expressed in terms of the percentage (%).
Each of the blood samples aseptically collected from the above objects was diluted two folds with a sterile normal saline solution. Subsequently, the diluted blood sample was quietly poured into the tube containing 3.5 ml of the Ficoll-Paque liquid (General Electric Company, Uppsala, Sweden), and centrifuged at 600×g for 30 minutes. […]

[2] = test system: ubiquitinated serotonin transporter protein; test: Expression amount of ubiquitinated serotonin transporter protein in established lymphocytes (UBIQAPTURE-Q kit, Western blotting); type: cell-based, human; conditions: MG132 20 μM, 4 hours
Description: as §1, with “A primary antibody (anti-SERT) (Millipore, Billerica, Mass.) against the serotonin transporter protein was added to the PVDF membrane, allowed to stand overnight in a refrigerator (4° C.), and then a secondary antibody (HRP-conjugated anti-rabbit IgG) (Kirkegaard and Perry Laboratories) was added, and allowed to stand at room temperature for 3 hours.” left out, “intensity. […]” for “intensity.”
According to the procedure in the above-described A (5), the ubiquitinated protein was isolated from the homogenate homogenized with a lysis buffer using UBIQAPTURE-Q kit (Enzo Life Sciences International, Inc, Plymouth Meeting, Pa.), and the ubiquitinated serotonin transporter protein was detected by Western blotting under the same conditions as in the A (5). […]

[3] = test system: MAGE-D1 gene-deficient mouse; test: Forced swimming test, model mouse; type: in vivo; conditions: for effect on the increase of the immobility time: forced swimming test (FIG. 1)
Source text: The targeting vector (Stratagene: pBlueScript), which allow homologous recombination between the MAGE-D1 gene (Gene bank: NM_019791.2) exon and the drug (G418)-resistant gene (GenBank: U00004.1), was electroporated into the embryonic stem (ES) cells (acquired from Research Institute of National Center for Geriatrics and Gerontology) derived from the 129Svj mouse, and the drug-resistant colony was selected. The homologous recombinant was identified from the selected resistant colony by Southern blotting. The desired homologous recombinant ES cell clone thus identified was injected into the blastocyst stage embryo of the C57BL/6J mouse, thereby making a chimera mouse. The chimera mouse was mated with the wild type C57BL/6J mouse, thereby making a hetero MAGE-D1 gene-deficient mouse of F1 generation. The wild type C57BL/6J was mated with the hetero MAGE-D1 gene-deficient mouse up to the F10 generation, and the mouse having 99.9 percent (as a result of one mating with the C57BL/6J mouse, about half the genes of the newborn mouse are derived from the C57BL/6J mouse used for mating; in other words, as a result of the n times of mating with the C57BL/6J mouse, about [1−(1/2)^n+1]×100% genes are likely derived from the C57BL/6J mouse) C57BL/6J genetic background was used. The mouse having the genetic background was used as the MAGE-D1 gene-deficient mouse (hereinafter may be referred to as model mouse) in the following test.
(§2) Experimental equipment and procedure: the experimental equipment was a water tank (diameter 15 cm×height 20 cm) containing water (water temperature about 22° C.×depth 13 cm). The wild type C57BL/6J mouse as the control or the model mouse was placed in the water tank, and immediately after that, the immobility time was measured using Scanet MV-10AQ (Brainscience Idea, Co., Ltd. Osaka, Japan) for 10 minutes at intervals of 1 minute.
(§3) 5 or 10 mg/kg sertraline (Pfizer, Groton, CT) suspended in 0.3% carboxymethyl cellulose sodium, and 10 or 20 mg/kg imipramine (Sigma, St. Louis, Mo.) dissolved in a normal saline solution were intraperitoneally administered 30 minutes before the main test. As the control, the solvent was intraperitoneally administered.

wild type C57BL/6J mouse = test: Forced swimming test, control mouse; type: in vivo
Description: as §2, §3

[4] = established lymphocytes from patients with depression to whom the antidepressant was not effective
[5] = 5 mg/kg intraperitoneally 30 minutes before test
[6] = 10 mg/kg intraperitoneally 30 minutes before test
[7] = 20 mg/kg intraperitoneally 30 minutes before test

Compound	expression amount of the serotonin transporter ([1]; established lymphocytes from healthy subjects)	expression amount of the serotonin transporter ([1]; established lymphocytes from patients with depression to whom the antidepressant was effective)	expression amount of the serotonin transporter [1, 4]	effect of addition on the expression amount of the serotonin transporter ([1]; established lymphocytes of the patients with depression, regardless of effect of the antidepressant)	expression amount of the ubiquitinated serotonin transporter ([2]; established lymphocytes from healthy subjects, control = healthy subjects without MG132)	expression amount of the ubiquitinated serotonin transporter ([2]; established lymphocytes from patients with depression to whom fluvoxamine was effective)	expression amount of the ubiquitinated serotonin transporter [2, 4]	average of the immobility time ratio [3, 5]	average of the immobility time ratio [3, 6]	effect on the increase of the immobility time [3]	average of the immobility time ratio (wild type C57BL/6J mouse; [5])	average of the immobility time ratio (wild type C57BL/6J mouse; [6])	average of the immobility time ratio [3, 7]	average of the immobility time ratio (wild type C57BL/6J mouse; [7])
CC(C)C[C@@H](C=O)NC(=O)[C@H](CC(C)C)NC(=O)[C@H](CC(C)C)NC(=O)OCc1ccccc1 [MG132] (Cbz-Leu-Leu-Leu-aldehyde)	173.8%	141.9%	143.6%	did not significantly increase	130.6%	103.4%	88.5%							
CN[C@H]1CC[C@@H](c2ccc(Cl)c(Cl)c2)c2ccccc21 [sertraline]								56.3%	45.7%	significantly and dose-dependently decreased	37.4%	37.7%		
CN(C)CCCN1c2ccccc2CCc2ccccc21 [imipramine]									60.2%	significantly and dose-dependently decreased		47.7%	40.6%	39.0%
